Experimental data: publication PMC3195939 (Journal of controlled release : official journal of the …, 2011)

Assays:
HeLa cells [1] = assay: Uptake of endocytic markers after inhibitor treatment; format: cell-based, human
HeLa cells [2] = assay: Actin filament visualization with rhodamine-phalloidin in fixed cells; format: cell-based, human; details: 2 μM for 30 min at 37°C, rhodamine-phalloidin and DAPI
HeLa cells [3] = assay: Cellular uptake by live cell confocal fluorescence microscopy; format: cell-based, human
cell membranes = details: studies in fixed cells; cited from earlier work

Compound: CCN(c1nc(N)c(C(=O)NC(=N)N)nc1Cl)C(C)C [EIPA, 5-(N-ethyl-N-isopropyl)amiloride]
- Effect on uptake of 10K-Dex (HeLa cells [1]; 50 μM EIPA): significantly inhibited
- Effect on uptake of CTX-B (HeLa cells [1]; 50 μM EIPA): significantly inhibit
- Effect on uptake of EGF (HeLa cells [1]; 50 μM EIPA, data not shown): no or little effect

Compound: C/C1=C/C(=O)O[C@@H]2C[C@@H](CC[C@H](C)/C=C\CC1)O[C@@](O)([C@@H]1CSC(=O)N1)C2 [Lat B, Latrunculin B]
- Effect on actin filament network (HeLa cells [2]): total disruption of the actin filament network
- Effect on uptake of 10K-Dex (HeLa cells [1]; 2 μM Lat B, data not shown): did not significantly inhibit

Compound: AF488-MCoTI-I: MCoTI-I site-specifically labeled with AlexaFluor488 through the ε-amino of residue Lys4 in loop 1 (SGSDGGVCPKILQRCRRDSDCPGACICRGNGYCG; not fully specified; AlexaFluor488 on Lys4; UniProt P82408 1-34, looked up)
- Surface binding at 4°C (HeLa cells [3]; 25 μM, 4°C, live HeLa cells): no significant surface binding
- Internalization at 4°C (HeLa cells [3]; 25 μM, 1 h incubation at 4°C, completely reversible on 1 h at 37°C): totally inhibited
- Internalization (intracellular distribution) (HeLa cells [3]; 25 μM, 1 h incubation at 37°C, serum-free DMEM, live HeLa cells, confocal fluorescence): clearly visible within perinuclear punctate spots inside the cells
- Inhibition of cellular uptake by EIPA (HeLa cells [3]; 50 μM EIPA for 30 min at 37°C before 25 μM cyclotide, 1 h uptake): ≈ 80%

Compound: kalata B1
- Affinity for proteins or lipids in cell membranes (cell membranes): shows membrane affinity
